We go through 24 compounds from patent publication US11040035B2, “3-oxo-2,6-diphenyl-2,3-dihydropyridazine-4-carboxamides” (BAYER PHARMA AKTIENGESELLSCHAFT, priority 2016, dated 2021).

The IC50 is the concentration that inhibits the measured activity by half.

The target in test [1] is T1, AHR (Homo sapiens, UniProt P35869).
T1 sequence (P35869 11-848): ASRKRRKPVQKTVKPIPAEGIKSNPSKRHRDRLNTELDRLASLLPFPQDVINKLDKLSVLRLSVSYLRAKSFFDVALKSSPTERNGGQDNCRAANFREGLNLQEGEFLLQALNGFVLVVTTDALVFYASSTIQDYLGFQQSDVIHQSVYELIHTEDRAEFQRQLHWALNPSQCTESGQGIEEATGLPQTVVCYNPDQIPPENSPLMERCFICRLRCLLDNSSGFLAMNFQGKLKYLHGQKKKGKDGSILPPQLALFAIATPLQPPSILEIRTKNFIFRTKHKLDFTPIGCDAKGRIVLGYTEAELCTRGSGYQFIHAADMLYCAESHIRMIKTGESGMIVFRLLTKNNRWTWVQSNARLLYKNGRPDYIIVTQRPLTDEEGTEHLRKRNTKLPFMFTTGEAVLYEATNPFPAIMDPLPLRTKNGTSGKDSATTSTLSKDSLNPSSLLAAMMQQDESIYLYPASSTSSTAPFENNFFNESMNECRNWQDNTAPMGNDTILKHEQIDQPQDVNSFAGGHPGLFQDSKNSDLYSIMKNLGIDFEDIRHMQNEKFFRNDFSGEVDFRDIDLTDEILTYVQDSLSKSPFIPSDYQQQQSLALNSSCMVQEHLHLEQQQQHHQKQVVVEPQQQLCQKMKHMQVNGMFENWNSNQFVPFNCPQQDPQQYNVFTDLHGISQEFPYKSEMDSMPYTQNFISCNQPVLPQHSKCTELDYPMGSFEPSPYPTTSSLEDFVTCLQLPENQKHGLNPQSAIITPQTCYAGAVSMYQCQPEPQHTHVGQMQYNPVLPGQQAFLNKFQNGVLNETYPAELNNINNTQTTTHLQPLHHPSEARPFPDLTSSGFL
Nature of the test: In vitro assay 2: agonism in human cell line (transactivation assay). The following applies: Assay 2: AHR-luc Hum Agonism IC50 [M], no kynurenic acid, 20 hours, firefly luciferase.

In test [2] the target is T1, AHR. Put plainly: In vitro assay 1: antagonism in human cell line (transactivation assay, kynurenic acid prestimulated). The settings on record: Assay 1: AHR-luc Hum Antagonism IC50 [M], 150 μM kynurenic acid, 20 hours, firefly luciferase.

With `COc1ccc(-c2cc(C(=O)NC(C)C(C)O)c(=O)n(-c3cccc(F)c3)n2)cc1` (stereo not drawn) [Example 138, 2-(3-Fluorophenyl)-N-(3-hydroxybutan-2-yl)-6-(4-methoxyphenyl)-3-oxo-2,3-dihydropyridazine-4-carboxamide], the IC50 in test [1] was greater than 2e-05 M; in test [2], 5.02e-08 M.

For `COc1ccc(-c2cc(C(=O)N[C@@H]3CCC[C@@H]3O)c(=O)n(-c3cccc(F)c3)n2)cc1` [Example 139, 2-(3-Fluorophenyl)-N-[(1R,2S)-2-hydroxycyclopentyl]-6-(4-methoxyphenyl)-3-oxo-2,3-dihydropyridazine-4-carboxamide], the values for the IC50 in test [1] and in test [2] were greater than 2e-05 M and 6.97e-08 M, respectively.

In the case of `CC(O)C(C)NC(=O)c1cc(-c2ccc(OC(F)F)cc2)nn(-c2cccc(F)c2)c1=O` (stereo not drawn) [Example 140, 6-[4-(Difluoromethoxy)phenyl]-2-(3-fluorophenyl)-N-(3-hydroxybutan-2-yl)-3-oxo-2,3-dihydropyridazine-4-carboxamide], the IC50 was greater than 2e-05 M in test [1] and 2.05e-07 M in test [2].

With `O=C(NC(CO)C1CCOC1)c1cc(-c2ccc(OC(F)F)cc2)nn(-c2cccc(F)c2)c1=O` (stereo not drawn) [Example 144, 6-[4-(Difluoromethoxy)phenyl]-2-(3-fluorophenyl)-N-{(2-hydroxy-1-tetrahydrofuran-3-yl)ethyl}-3-oxo-2,3-dihydropyridazine-4-carboxamide], the IC50 was greater than 2e-05 M in test [1] and 8.37e-08 M in test [2].

Regarding `O=C(NC(CO)C1CCOCC1)c1cc(-c2ccc(Cl)cc2)nn(-c2cccc(F)c2)c1=O` (stereo not drawn) [Example 149], the IC50 is greater than 2e-05 M in test [1] and 1.87e-07 M in test [2].

Turning to `COC(=O)[C@H](CO)NC(=O)c1cc(-c2ccc(Cl)cc2)nn(-c2cccc(F)c2)c1=O` [Example 153, Methyl N-{[6-(4-chlorophenyl)-2-(3-fluorophenyl)-3-oxo-2,3-dihydropyridazin-4-yl]carbonyl}-L-serinate], the results for the IC50 in test [1] and in test [2] were greater than 2e-05 M and 1.43e-07 M, respectively.

In the case of `C[C@@H](CO)NC(=O)c1cc(-c2ccc(OC(F)F)cc2)nn(-c2cccc(F)c2)c1=O` [Example 155, 6-[4-(Difluoromethoxy)phenyl]-2-(3-fluorophenyl)-N-[(2S)-1-hydroxypropan-2-yl]-3-oxo-2,3-dihydropyridazine-4-carboxamide], the figures for the IC50 in test [1] and in test [2] were greater than 2e-05 M and 1.7e-07 M, respectively.

Turning to `O=C(NC[C@H](O)CO)c1cc(-c2ccc(Cl)cc2)nn(-c2cccc(F)c2)c1=O` [Example 156, 6-(4-Chlorophenyl)-N-[(2S)-2,3-dihydroxypropyl]-2-(3-fluorophenyl)-3-oxo-2,3-dihydropyridazine-4-carboxamide], the IC50 is greater than 2e-05 M in test [1] and 1.99e-07 M in test [2].

On to `O=C(N[C@H](CO)C1CCCC1)c1cc(-c2ccc(Cl)cc2)nn(-c2cccc(F)c2)c1=O` [Example 157, 6-(4-Chlorophenyl)-N-[(1S)-1-cyclopentyl-2-hydroxyethyl]-2-(3-fluorophenyl)-3-oxo-2,3-dihydropyridazine-4-carboxamide], for which the IC50 in test [1] was greater than 2e-05 M; in test [2], 2.22e-07 M.

Regarding `O=C(NC[C@@H](O)CO)c1cc(-c2ccc(Cl)cc2)nn(-c2cccc(F)c2)c1=O` [Example 159, 6-(4-Chlorophenyl)-N-[(2R)-2,3-dihydroxypropyl]-2-(3-fluorophenyl)-3-oxo-2,3-dihydropyridazine-4-carboxamide], the results for the IC50 in test [1] and in test [2] were greater than 2e-05 M and 2.84e-07 M, respectively.

For the compound `COCC(O)CNC(=O)c1cc(-c2ccc(OC(F)F)cc2)nn(-c2cccc(F)c2)c1=O` (stereo not drawn) [Example 160, 6-[4-(Difluoromethoxy)phenyl]-2-(3-fluorophenyl)-N-(2-hydroxy-3-methoxypropyl)-3-oxo-2,3-dihydropyridazine-4-carboxamide], the results for the IC50 in test [1] and in test [2] were greater than 2e-05 M and 3.11e-07 M, respectively.

Take `O=C(N[C@@H](CO)Cc1cnc[nH]1)c1cc(-c2ccc(Cl)cc2)nn(-c2cccc(F)c2)c1=O` [Example 161, 6-(4-Chlorophenyl)-2-(3-fluorophenyl)-N-[(2R)-1-hydroxy-3-(1H-imidazol-5-yl)propan-2-yl]-3-oxo-2,3-dihydropyridazine-4-carboxamide]: the IC50 in test [1] is greater than 2e-05 M; in test [2], 3.15e-07 M.

As for `NC(=O)[C@H](CO)NC(=O)c1cc(-c2ccc(Cl)cc2)nn(-c2cccc(F)c2)c1=O` [Example 162, N-[(2S)-1-Amino-3-hydroxy-1-oxopropan-2-yl]-6-(4-chlorophenyl)-2-(3-fluorophenyl)-3-oxo-2,3-dihydropyridazine-4-carboxamide], the IC50 in test [1] is greater than 2e-05 M; in test [2], 4.83e-07 M.

Turning to `NC(=O)CC(CO)NC(=O)c1cc(-c2ccc(Cl)cc2)nn(-c2cccc(F)c2)c1=O` (stereo not drawn) [Example 163, N-(4-Amino-1-hydroxy-4-oxobutan-2-yl)-6-(4-chlorophenyl)-2-(3-fluorophenyl)-3-oxo-2,3-dihydropyridazine-4-carboxamide], the half-maximal inhibitory concentration (IC50) in test [1] was greater than 2e-05 M; in test [2], 4.98e-07 M.

For the compound `O=C(N[C@@H](CO)C(=O)O)c1cc(-c2ccc(Cl)cc2)nn(-c2cccc(F)c2)c1=O` [Example 165, N-{[6-(4-Chlorophenyl)-2-(3-fluorophenyl)-3-oxo-2,3-dihydropyridazin-4-yl]carbonyl}-L-serine], the IC50 in test [1] and in test [2] was greater than 2e-05 M each time.

For the compound `O=C(NC(CO)C1CCOC1)c1cc(-c2ccc(OC(F)(F)F)cc2)nn(-c2cccc(F)c2)c1=O` (stereo not drawn) [Example 174, 2-(3-Fluorophenyl)-N-[2-hydroxy-1-(tetrahydrofuran-3-yl)ethyl]-3-oxo-6-[4-(trifluoromethoxy)phenyl]-2,3-dihydropyridazine-4-carboxamide], the concentration for half-maximal inhibition (IC50) in test [1] is greater than 2e-05 M; in test [2] it was 3.33e-08 M.

With `CC(O)C(C)NC(=O)c1cc(-c2ccc(OC(F)(F)F)cc2)nn(-c2cccc(F)c2)c1=O` (stereo not drawn) [Example 179, 2-(3-Fluorophenyl)-N-(3-hydroxybutan-2-yl)-3-oxo-6-[4-(trifluoromethoxy)phenyl]-2,3-dihydropyridazine-4-carboxamide], the IC50 in test [1] was greater than 2e-05 M; in test [2] it was 7.36e-08 M.

Take `CC(C)(O)CNC(=O)c1cc(-c2ccc(Cl)cc2)nn(-c2cccc(F)c2)c1=O` [Example 188, 6-(4-Chlorophenyl)-2-(3-fluorophenyl)-N-(2-hydroxy-2-methylpropyl)-3-oxo-2,3-dihydropyridazine-4-carboxamide]: the values for the IC50 in test [1] and in test [2] were greater than 2e-05 M and 7.88e-08 M, respectively.

On to `O=C(NCC1(O)CC1)c1cc(-c2ccc(Cl)cc2)nn(-c2cccc(F)c2)c1=O` [Example 196, 6-(4-Chlorophenyl)-2-(3-fluorophenyl)-N-[(1-hydroxycyclopropyl)methyl]-3-oxo-2,3-dihydropyridazine-4-carboxamide], for which the IC50 is greater than 2e-05 M in test [1] and 1.04e-07 M in test [2].

For the compound `C[C@@H](O)CCNC(=O)c1cc(-c2ccc(Cl)cc2)nn(-c2cccc(F)c2)c1=O` [Example 204, (−)-6-(4-Chlorophenyl)-2-(3-fluorophenyl)-N-[(3R)-3-hydroxybutyl]-3-oxo-2,3-dihydropyridazine-4-carboxamide], the IC50 is greater than 2e-05 M in test [1] and 3.85e-07 M in test [2].

Turning to `C[C@H](O)CCNC(=O)c1cc(-c2ccc(Cl)cc2)nn(-c2cccc(F)c2)c1=O` [Example 205, (+)-6-(4-Chlorophenyl)-2-(3-fluorophenyl)-N-[(3S)-3-hydroxybutyl]-3-oxo-2,3-dihydropyridazine-4-carboxamide], the IC50 in test [1] was greater than 2e-05 M; in test [2] it was 2.12e-07 M.

For `O=C(NC1(CO)CCCC1)c1cc(-c2ccc(Cl)cc2)nn(-c2cccc(F)c2)c1=O` [Example 214, 6-(4-Chlorophenyl)-2-(3-fluorophenyl)-N-[1-(hydroxymethyl)cyclopentyl]-3-oxo-2,3-dihydropyridazine-4-carboxamide], the IC50 in test [1] was greater than 2e-05 M; in test [2], 8.32e-08 M.

For `O=C(NC1(CO)CCCCC1)c1cc(-c2ccc(Cl)cc2)nn(-c2cccc(F)c2)c1=O` [Example 215, 6-(4-Chlorophenyl)-2-(3-fluorophenyl)-N-[1-(hydroxymethyl)cyclohexyl]-3-oxo-2,3-dihydropyridazine-4-carboxamide], the IC50 in test [1] was greater than 2e-05 M; in test [2] it was 1.66e-07 M.

`O=C(N[C@@H](CO)Cc1ccccc1)c1cc(-c2ccc(Cl)cc2)nn(-c2cccc(F)c2)c1=O` [Example 219, (+)-6-(4-Chlorophenyl)-2-(3-fluorophenyl)-N-[(2R)-1-hydroxy-3-phenylpropan-2-yl]-3-oxo-2,3-dihydropyridazine-4-carboxamide]: the figures for the IC50 in test [1] and in test [2] were greater than 2e-05 M and 3.38e-06 M, respectively.
